{"source": "patent US20240261271A1", "about": "“APPLICATION OF HYDRONIDONE IN PREPARATION OF DRUG FOR TREATING OR PREVENTING CHRONIC HEPATITIS B WITH LIVER FIBROSIS” (priority 2021, published 2024)", "key": {"[1]": {"tested_on": "liver tissue inflammation", "assay": "Phase II clinical study: liver tissue inflammation grading", "type": "in vivo, human", "conditions": "after 52 weeks of treatment", "method": "(§1) This is a randomized, double-blind, placebo-controlled, multicenter, and dose-finding phase II clinical study with foundational treatment. In the clinical trial, three different dose test groups and a placebo control group were set on the basis of the entecavir capsule antiviral treatment, and the planned sample amount of each group was 60 cases, totaling 240 cases. The three dose test groups were 180 mg group, 270 mg group, and 360 mg group, respectively. The proportion of each test group to the control group was 1:1:1:1, and the cases were distributed randomly. […] Negative conversion rate of HBV DNA after treatment between the groups was compared using CMH-λ2 test or Fisher's exact probability method. • 2. Liver tissue elasticity reduction after treatment between the groups was compared using Kruskal-Wallis H test. • 3. […] The recovery rate of the liver function index after treatment between the groups was compared using CMH-λ2 test or Fisher's exact probability method, and the found values of each index between the groups were compared using variance analysis or Kruskal-Wallis H test."}, "[2]": {"tested_on": "ALT (alanine aminotransferase)", "assay": "Phase II clinical study: ALT index of liver function", "type": "in vivo, human", "conditions": "FAS, after 52 weeks of treatment", "method": "as §1"}}, "data": [{"smiles": "Cc1ccc(=O)n(-c2ccc(O)cc2)c1", "note": "[hydronidone]", "values": [{"measurement": "proportion of the subjects with the liver tissue inflammation ameliorated", "setting": "[1]; 180 mg group", "value": "21 (58.33%) n(%)"}, {"measurement": "proportion of the subjects with the liver tissue inflammation ameliorated", "setting": "[1]; 270 mg group", "value": "20 (57.14%) n(%)"}, {"measurement": "proportion of the subjects with the liver tissue inflammation ameliorated", "setting": "[1]; 360 mg group", "value": "19 (55.88%) n(%)"}, {"measurement": "mean (standard deviation) of variation of the ALT index compared with the baseline", "setting": "[2]; 180 mg group", "value": "44.71 (53.50)"}, {"measurement": "proportion of the subjects with ALT indexes determined to turn normal from abnormal (baseline)", "setting": "[2]; 180 mg group", "value": "15 (78.95%) n(%)"}, {"measurement": "mean (standard deviation) of variation of the ALT index compared with the baseline", "setting": "[2]; 270 mg group", "value": "66.47 (78.13)"}, {"measurement": "proportion of the subjects with ALT indexes determined to turn normal from abnormal (baseline)", "setting": "[2]; 270 mg group", "value": "18 (85.71%) n(%)"}, {"measurement": "mean (standard deviation) of variation of the ALT index compared with the baseline", "setting": "[2]; 360 mg group", "value": "43.58 (59.87)"}, {"measurement": "proportion of the subjects with ALT indexes determined to turn normal from abnormal (baseline)", "setting": "[2]; 360 mg group", "value": "16 (88.89%) n(%)"}]}]}
